SMILES strings stand for the structures. Where two headings read alike, the source gives them in different places.

Data set [1] in a line: Example 7: Phase III clinical study, plasma pharmacokinetics of TP-1. The data set is classed as in vivo, human. Particulars: for AUC / Cmax / Tmax: human, plasma; for Tmax: read-out: Tmax, Median (range). The text has this: This study consisted of four visits to the study site. After the initial screening visit (Visit 1), subjects who met all study selection criteria were required to undergo a single-blind placebo run-in period for 7-10 days. Following the completion of the run-in period, eligible subjects meeting the randomization criteria were enrolled and randomized to one of the four treatment arms. Subjects were dispensed medication as per the randomization list. Randomized subjects were required to undergo a 2 week (14 days) treatment period as per the protocol to assess the efficacy and safety of the assigned treatment. Subjects were instructed to record the symptom scores in a symptom assessment diary. They were also scheduled to have at least two blood samples for PK assessment during the treatment period.
• Plasma PK: Maximum plasma concentration (Cmax), time to attain Cmax (Tmax), and area under the plasma concentration-time curve over the dosing interval (AUCtau) will be estimated for mometasone furoate and olopatadine on Day 1 and Day 8 based on the pharmacokinetic analysis set (PKAS).
The pharmacokinetics (PK) of TP-1 were measured for a subset of patients in the phase III clinical study on day 1 and day 8 (steady state).

Data set [2] in a line: Example 11: single-dose cross-over study, pharmacokinetics of mometasone furoate. The data set is classed as in vivo, human. The protocol: The pharmacokinetics of mometasone furoate in a fixed dose combination of mometasone furoate and olopatadine hydrochloride nasal spray was evaluated in a clinical trial. The clinical trial was a randomized, single-center, single-dose, open-label, three-period, six-sequence, cross-over study to evaluate three treatments administered by nasal spray. The three treatments included a combination of mometasone furoate and olopatadine hydrochloride nasal spray, mometasone furoate nasal spray and Nasonex® nasal spray.
(§1) The study consisted of a screening visit, 3 single-dose treatment periods with washout periods of 7 to 14 days between dosing in each treatment period, an early withdrawal visit if applicable, and a follow-up telephone call (or visit) 1 to 7 days after completing the third treatment period.
(§2) A total of 30 subjects were randomized to 1 of 6 treatment sequences and received at least 1 dose of study drug. All 30 subjects were included in the safety analysis set and the pharmacokinetic subset. All but 2 subjects completed the study per protocol.

For data set [3] the following is noted: human, in vivo. The protocol:
The pharmacokinetics of olopatadine in a fixed dose combination of mometasone furoate and olopatadine hydrochloride nasal spray was evaluated in a clinical trial. The clinical trial was a randomized, single-center, single-dose, open-label, three-period, six-sequence, cross-over study to evaluate three treatments administered as a nasal spray. The three treatments included a combination of mometasone furoate and olopatadine hydrochloride nasal spray, olopatadine hydrochloride nasal spray and PATANASE® nasal spray.
as §1, §2

Setting [4] is: patients receiving TP-1, Day 8 (steady state).
Setting [5] is: human, in vivo, inhaled or intranasal, mometasone furoate in fixed dose combination nasal spray, single dose.

As to `C[C@@H]1C[C@H]2[C@@H]3CCC4=CC(=O)C=C[C@]4(C)[C@@]3(Cl)[C@@H](O)C[C@]2(C)[C@@]1(OC(=O)c1ccco1)C(=O)CCl` [Mometasone furoate], the AUC in data set [1] (mometasone furoate in plasma, patients receiving TP-1, Day 1, read-out: AUCtau, Geo Mean (Geo CV%)) was 0.0262 ng·h/mL; in data set [1] (mometasone furoate in plasma, patients receiving TP-1, Day 1, read-out: AUCtau, Mean (SD)), 0.0286 ng·h/mL; in data set [1] (mometasone furoate in plasma, patients receiving TP-1, Day 1, read-out: AUCtau, Min-Max), 0.0121 to 0.0725 ng·h/mL; in data set [1] (mometasone furoate in plasma, patients receiving TP-1, Day 8 (steady state), read-out: AUCtau, Geo Mean (Geo CV%)) it was 0.0527 ng·h/mL; in data set [1] (mometasone furoate in plasma, patients receiving TP-1, Day 8 (steady state), read-out: AUCtau, Mean (SD)) it was 0.0584 ng·h/mL; in data set [1] (mometasone furoate in plasma, patients receiving TP-1, Day 8 (steady state), read-out: AUCtau, Min-Max), 0.0257 to 0.124 ng·h/mL. Moreover, the Cmax in data set [1] (mometasone furoate in plasma, patients receiving TP-1, Day 1, read-out: Cmax, Geo Mean (Geo CV%)) was 0.00627 ng/mL; in data set [1] (mometasone furoate in plasma, patients receiving TP-1, Day 1, read-out: Cmax, Mean (SD)), 0.00678 ng/mL; in data set [1] (mometasone furoate in plasma, patients receiving TP-1, Day 1, read-out: Cmax, Min-Max) it was 0.00267 to 0.0128 ng/mL; in data set [1] (mometasone furoate in plasma, patients receiving TP-1, Day 8 (steady state), read-out: Cmax, Geo Mean (Geo CV%)) it was 0.00917 ng/mL; in data set [1] (mometasone furoate in plasma, patients receiving TP-1, Day 8 (steady state), read-out: Cmax, Mean (SD)), 0.00992 ng/mL; in data set [1] (mometasone furoate in plasma, patients receiving TP-1, Day 8 (steady state), read-out: Cmax, Min-Max) it was 0.00358 to 0.0161 ng/mL. Besides, the Cmax in data set [2] (setting [5]) was found to be 0.0108 ng/mL. Also, the time of peak concentration (Tmax) amounted to 1 h in data set [1] (patients receiving TP-1, Day 1) and 1 h in data set [2] (setting [5]). The “Tmax, Median (range)” value in data set [1] (setting [4]) is given as 1.00 (0.25-2) hour. Further, the AUC(0-t) in data set [2] (setting [5]) is 0.085 ng·h/mL. For the same compound, in data set [2] (human, in vivo, inhaled or intranasal, mometasone furoate in fixed dose combination nasal spray, single dose, read-out: AUC(0-infinity)), the AUC(0-inf) is 0.104 ng·h/mL. In addition, in data set [2] (single dose nasal spray), the “Quantifiable concentrations observed until the last time point” value was 72 h.

With `CN(C)CC/C=C1/c2ccccc2COc2ccc(CC(=O)O)cc21` [Olopatadine], the AUC in data set [1] (olopatadine in plasma, patients receiving TP-1, Day 1, read-out: AUCtau, Geo Mean (Geo CV%)) is 72.9 ng·h/mL; in data set [1] (olopatadine in plasma, patients receiving TP-1, Day 1, read-out: AUCtau, Mean (SD)), 75.5 ng·h/mL; in data set [1] (olopatadine in plasma, patients receiving TP-1, Day 1, read-out: AUCtau, Min-Max), 39.3 to 117 ng·h/mL; in data set [1] (olopatadine in plasma, patients receiving TP-1, Day 8 (steady state), read-out: AUCtau, Geo Mean (Geo CV%)), 85.7 ng·h/mL; in data set [1] (olopatadine in plasma, patients receiving TP-1, Day 8 (steady state), read-out: AUCtau, Mean (SD)) it was 88.8 ng·h/mL; in data set [1] (olopatadine in plasma, patients receiving TP-1, Day 8 (steady state), read-out: AUCtau, Min-Max), 53.4 to 138 ng·h/mL. For the same compound, the maximum concentration (Cmax) in data set [1] (olopatadine in plasma, patients receiving TP-1, Day 1, read-out: Cmax, Geo Mean (Geo CV%)) is 18.8 ng/mL; in data set [1] (olopatadine in plasma, patients receiving TP-1, Day 1, read-out: Cmax, Mean (SD)), 19.8 ng/mL; in data set [1] (olopatadine in plasma, patients receiving TP-1, Day 1, read-out: Cmax, Min-Max), 8.7 to 31.6 ng/mL; in data set [1] (olopatadine in plasma, patients receiving TP-1, Day 8 (steady state), read-out: Cmax, Geo Mean (Geo CV%)), 18.7 ng/mL; in data set [1] (olopatadine in plasma, patients receiving TP-1, Day 8 (steady state), read-out: Cmax, Mean (SD)), 19.8 ng/mL; in data set [1] (olopatadine in plasma, patients receiving TP-1, Day 8 (steady state), read-out: Cmax, Min-Max) it was 9.67 to 37.3 ng/mL. For the same compound, the Tmax in data set [1] (patients receiving TP-1, Day 1) amounted to 1 h. In addition, the “Tmax, Median (range)” value in data set [1] (setting [4]) was 1.00 (0.25-2) hour. For the same compound, the “Quantifiable concentrations observed until the last time point” value in data set [3] came out at 48 h.

The record behind these values is patent EP3468532B1, “DISPENSING DEVICE AND PHARMACEUTICAL COMPOSITION FOR THE TREATMENT OF RHINITIS” (Glenmark Specialty S.A., priority 2017, dated 2019).
